From PubChem BioAssay AID1159562 (GlaxoSmithKline (GSK), 2015) come the findings set out here.

Calls of active or inactive are those of the source. No rule for the calls is given here. Bounds are passed on as bounds.

This assay relates to Trypanosoma brucei growth inhibition, luminescence. Kind of assay: antitrypanosomal activity against T. brucei – luminescence (AID 1159562).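 Also: parasites grew with compound for 24 h before the luminescence read.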
`Cc1nc(-c2ccc3c(c2)OCO3)sc1C(=O)NCc1ccc2c(c1)OCO2`: the IC50 is > 40 µM (inactive).
For `CC1CN(S(=O)(=O)c2ccc(NC(=O)c3cc(C4CC4)nc4c3cnn4C(C)C)cc2)CC(C)O1` (configuration not stated) the value was 6.3 µM; for `O=C(COc1ccccc1)Nc1ccccc1C(=O)Nc1nccs1`, 0.63 µM.
On to `CNC(=O)Oc1ccc(C(=O)NCc2ccccc2)cc1OC(=O)NC`, for which the IC50 is 0.4 µM.
For `COc1ncc(-c2ccc3ncnc(N4CCOCC4)c3c2)cc1NS(C)(=O)=O` the value was 0.5 µM.
Next, `O=C(Cc1ccccc1)Nc1[nH]nc2sc(C(=O)NC3CCCC3)cc12`: 0.32 µM.
For `O=C(Nc1nc2ccccc2[nH]1)c1ccc2nc[nH]c2c1` the value was > 40 µM (inactive); for `CC1(C)CCC(=Cc2ccc(Cl)cc2)CC1(O)Cn1ccnc1` (configuration not stated), 25 µM.
Turning to `CCCCN(C(=O)c1ccc(NC(=O)C(C)C)cc1)c1ccccc1`, the IC50 was > 40 µM (inactive).
Next, `Cc1cc(N(C)C)nc(Nc2ccccc2C)n1`: > 40 µM (inactive); `O=C(NCCNc1noc(-c2ccc([N+](=O)[O-])cc2)n1)c1ccc(Cl)cc1`: > 40 µM (inactive); `NC(=O)c1cc(NC(=O)c2ccccc2COc2ccccc2)ccc1Cl`: > 40 µM (inactive).
For `CN(C)S(=O)(=O)c1cccc(CSc2nnc(-c3ccc4c(c3)OCO4)o2)c1` the value was > 40 µM (inactive).
For `O=C(NCCCn1cnc2ccccc21)c1ccc(NC(=O)c2ccco2)cc1` the value was 0.25 µM.
With `O=C(CN1CCN(S(=O)(=O)c2cccc([N+](=O)[O-])c2)CC1)Nc1ccc(Oc2ccccc2)cc1`, the IC50 is 16 µM.
Next, `CC(C)C[C@H](NC(=O)c1ccc(-c2ccccc2)o1)C(=O)NC1(C#N)CC1`: 0.05 µM; `O=C(NCc1ccncc1)c1ccccc1N1CCCN(C(=O)Cc2ccc(F)c(F)c2)CC1`: 20 µM.
For `Cc1ccccc1OCC(=O)N1CCCN(c2cccnn2)CC1` the value was > 40 µM (inactive).
For `O=C(CC1(O)C(=O)N(Cc2ccccc2)c2ccc(Br)cc21)c1cccnc1` (configuration not stated) the value was 0.79 µM.
Turning to `CCN(CC)c1nc(Nc2ccncc2)nc2ccccc12`, the IC50 was 5 µM.
Next, `O=C(c1ccc(OCCCc2cnc[nH]2)cc1)C1CC1`: > 40 µM (inactive); `Cc1cc(Nc2cc(C3CC3)[nH]n2)nc(N2CCC[C@H]2C(N)=O)n1`: 0.063 µM; `COc1ccc([N+](=O)[O-])cc1NC(=O)Nc1cccc(Cl)c1`: 20 µM.
For `CC(C)N(C(=O)CN1C(=O)C(N)C(=O)N(c2ccccc2)c2ccccc21)c1ccccc1` (configuration not stated) the value was > 40 µM (inactive).
For `O=S(=O)(NCC(c1cccnc1)N1CCN(c2ccc(F)cc2)CC1)c1cccs1` (configuration not stated) the value was > 40 µM (inactive).
Take `O=C(NNC(=O)c1ccccn1)c1ccc(-c2ccccc2)cc1`: the IC50 is 0.63 µM.
As for `Cc1cccnc1NC(=O)c1cccc(OCc2c(C)noc2C)c1`, the IC50 was 0.79 µM.
Next, `O=C(NC(c1ccc(Cl)cc1)c1cnccn1)C1CCN(C(=O)Nc2cccc(C(F)(F)F)c2)CC1` (configuration not stated): 6.3 µM; `CCCn1c(NC(=O)CCn2cc(Br)cn2)nc2ccccc21`: 7.9 µM; `O=C1OCc2ccc(Nc3nccc(-c4cnn5ncccc45)n3)cc21`: 0.02 µM.
For `Cc1[nH]n2c(=O)c3c(nc2c1-c1ccc(Cl)cc1)CCCC3` the value was 0.32 µM; for `Cc1cc(NC(=O)C2CC2)ccc1OC1CCN(Cc2ccco2)CC1`, 0.25 µM; for `CCC(=O)N1N=C(c2ccc3c(c2)CCCC3)Sc2c1ncn2C(=O)CC`, 20 µM.
For `COc1ccc(CNc2nsc3ccccc23)cc1OC` the value was 6.3 µM; for `O=C(c1ccc(O)c(Cl)c1)N1CCN(c2cnccn2)CC1`, > 40 µM (inactive); for `O=C(CCCNC(=O)c1ccc(Cl)cc1)Nc1nc(-c2ccccn2)cs1`, 13 µM.
Take `Cc1ccc(S(C)(=O)=O)cc1Nc1nccc(-c2sc(N)nc2-c2ccccc2)n1`: the IC50 was 1.6 µM.
Next, `O=C(Nc1cccc(S(=O)(=O)Nc2ccc(Br)cc2)c1)c1ccc([N+](=O)[O-])s1`: 0.4 µM; `CCN(CC)c1nc(N(C)C)nc2c1CN(Cc1ccccc1)CC2`: 20 µM.
Turning to `CC(=O)NC1(c2ccccc2)CCN(CC(=O)Nc2ccccc2-c2ccccc2)CC1`, the IC50 was 0.5 µM.
With `NC(=O)c1cc(F)ccc1Nc1nc(NC2CCC(O)CC2)ncc1Cl` (configuration not stated), the IC50 was 0.63 µM.
Regarding `CS(=O)(=O)c1ccc(Nc2nccc(Nc3n[nH]c4ccc(F)cc34)n2)c(F)c1`, the concentration for half-maximal inhibition (IC50) is 0.79 µM.
For `CN(CC1CCCO1)S(=O)(=O)c1ccc(C(=O)Nc2nc(-c3ccccn3)cs2)cc1` (configuration not stated) the value was 0.63 µM; for `O=C(Nc1nc(-c2ccc(F)cc2)cs1)c1ccc([N+](=O)[O-])s1`, 1.3 µM.
Next, `COc1ccc(CN2CCCCC2c2nc(-c3cccnc3)no2)cc1` (configuration not stated): > 40 µM (inactive); `c1ccc2c(CCOc3nccnc3-c3ccncc3)c[nH]c2c1`: 40 µM.
For `O=S(=O)(c1ccccc1C(F)(F)F)N1CCN(Cc2ccc(-n3ccnc3)cc2)CC1` the value was > 40 µM (inactive).
As for `O=C(NCCc1cccnc1)c1ccc(-c2ccccc2F)o1`, the IC50 was > 40 µM (inactive).
As to `CNc1c(C(N)=O)c(-c2ccc3scnc3c2)nn1CC(F)(F)F`, the IC50 was > 40 µM (inactive).
Next, `Cc1cc2cc(CNc3ccc4c(c3)OCO4)c(=O)n(CCO)c2cc1C`: > 40 µM (inactive); `COc1ncc(-c2ccc3nccc(-c4ccncc4)c3c2)cc1NS(C)(=O)=O`: 1 µM.
For `CCc1c(C)nc(-n2nc(C)cc2NC(=O)COc2ccccc2F)[nH]c1=O` the value was 0.2 µM; for `CCCn1c(NC(=O)Cc2ccc(Cl)cc2)nc2ccccc21`, 3.2 µM.
Turning to `COc1cccc(-c2cc(C(F)(F)F)nc(-n3ccc([N+](=O)[O-])n3)n2)c1`, the IC50 is > 40 µM (inactive).
Next, `N#Cc1cccc(CN2CCC(N(Cc3cccnc3)C(=O)c3cc(F)c(F)cc3F)CC2)c1`: > 40 µM (inactive); `CC(C)n1c(-c2nonc2N)nc2cccc(OCCN3CCCC3)c21`: 0.79 µM.
Next, `CC(=O)Nc1nc(-c2cc(C)ccc2C)c(C)s1`: > 40 µM (inactive).
Next, `O=C(Nc1nc(-c2ccccn2)cs1)N1C[C@H]2C[C@@]2(c2ccccc2)C1`: 0.63 µM.
For the compound `O=C(NC(CO)c1ccc(F)cc1)c1ccc(-c2c[nH]c3ncccc23)s1` (configuration not stated), the IC50 is 0.79 µM.
Turning to `COc1cccc(CCNC(=O)C(c2cn[nH]c2)N2CCN(c3ccc(Cl)cc3)CC2)c1` (configuration not stated), the IC50 was 32 µM.
Next, `Cc1nc(N2CC(C)OC(C)C2)sc1C(=O)Nc1ccc2c(c1)OCO2` (configuration not stated): > 40 µM (inactive).
Next, `CCC(CC)C(=O)Nc1ccc(-c2nnc(-c3ccc(OC)cc3)o2)cc1`: 0.5 µM; `COc1ccc(OC)c2c(=O)c(Cc3ccccc3)c(C)[nH]c12`: > 40 µM (inactive).
Next, `O=c1[nH]cnc2c([C@@H]3O[C@H](CO)[C@@H](O)[C@H]3O)[nH]nc12`: 0.005 µM; `c1ccc(Nc2nc(-c3ccccn3)cc(N3CCOCC3)n2)cc1`: 13 µM; `CNS(=O)(=O)c1ccccc1Nc1nc(Nc2ccnn2C)ncc1Cl`: 0.1 µM.
For `N#Cc1nc(C=Cc2ccccc2)oc1NCc1cccnc1`, the IC50 was 32 µM.

As usually defined, the IC50 is the concentration at which inhibition is half-maximal.
